Test results as given in PMC6017738, “A Comparative Pharmacokinetic Study by UHPLC-MS/MS of Main Active Compounds after Oral Administration of Zushima-Gancao Extract in Normal and Adjuvant-Induced Arthritis Rats” (Molecules : A Journal of Synthetic Chemistry and Natural …, 2018).

Assays:
[1] = Pharmacokinetics in normal rats after oral administration of Zushima-Gancao extract (UHPLC-MS/MS of plasma); assay type: in vivo; conditions: male, Sprague-Dawley, rat, oral Zushima-Gancao extract 10 mL/kg single dose, n = 6, mean ± SD
Description: (§1) The plasma concentration–time curves (C-T curves) of nine analytes are presented in Figure 2, and the corresponding pharmacokinetic parameters, including Cmax, Tmax, AUC (0–t), AUC (0–∞) (AUC: area under concentration-time curve), and t1/2, were obtained using DAS 3.0 pharmacokinetic software (Chinese Pharmacological Association, China). Statistical differences between groups were analyzed using Student’s t-tests, and p-values less than 0.05 were considered statistically significant.
(§2) The chromatography experiment was carried out using a UHPLC system (Thermo Fisher, San Jose, CA, USA), equipped with a Hypersil GOLD C18 column (100 mm × 2.1 mm, 3 μm, Thermo Fisher, San Jose, CA, USA) maintained at 35 °C. The mobile phase consisted of 0.05% formic acid in water (Solvent A) and acetonitrile (Solvent B), and the flow rate was 0.3 mL/min. In order to completely separate all the analytes, the 10 min gradient elution program was used as follows: 0–1 min, 10% B; 1–5 min, 10–90% B; 5–6 min, 90–100% B; 6–8 min, 100% B; 8–9 min, 100–10% B; 9–10 min, 10% B, and the sample injection volume was 3 μL.
(§3) Mass spectrometry detection was operated on TSQ Vantage triple-stage quadrupole mass spectrometer (Thermo Fisher, San Jose, CA, USA) equipped with an electrospray ionization (ESI) source. Quantification of the analytes was performed using selective reaction monitor (SRM) in the negative ionization mode. Spray voltage, sheath gas pressure, auxiliary gas pressure, vaporizer temperature, and capillary temperature were set as 3.0 kV, 45 arb, 25 arb, 450 °C, and 350 °C, respectively.
(§4) Male Sprague–Dawley (SD) rats weighing 180–220 g (SCXK-2012-0002) were supplied by Silaike Lab Animals Ltd. (Shanghai, China). They were all kept in a stable condition (temperature, 22 ± 2 °C; relative humidity, 45–60%) with 12 h light/dark cycles for five days before animal experiments.
(§5) Rats were randomly divided into normal and AA groups with six rats in each group. The arthritic model rats were prepared as our previous research [19]. AA rats were intracutaneously injected with 0.1 mL of FAC in the left hind footpad and normal rats were injected with sterile saline. The FAC solution was prepared as follows: bacillus calmette-guerin (BCG) was bathed in water at 80 °C for 30 min, and then dissolved in a liquid paraffin–lanolin mixture (3:2, v/v). Immediately prior to use, the FAC solution were sterilized for 30 min at 120 °C.
(§6) After model construction, the rats were fed for 20 days. All rats were fasted for 12 h before drug administration, with free access to water. Each rat was administered with Zushima-Gancao extract at a single dose of 10 mL/kg. Blood samples (approximately 0.3 mL) were collected into heparinized micro-centrifuge tubes from the postorbital venous plexus veins of rats at specific time points of 0, 0.08, 0.17, 0.33, 0.5, 1, 2, 3, 5, 8, 12, 24, and 36 h. All blood samples were centrifuged immediately at 5000 rpm for 6 min, and the plasma were obtained and stored at −80 °C until analysis.
(§7) A liquid–liquid extraction (LLE) method was applied to extract the compounds from thawed rat plasma samples, aliquots of 100 μL plasma sample were transferred into a 1.5 mL Eppendorf tube, and 10 μL of methanol, 10 μL of hydrochloric acid (2 mol/L), and 10 μL of IS (130 ng/mL) were added separately. The mixture was vortexed for 30 s, and 500 μL of ethyl acetate was added and mixed by vortexing for 10 min. The supernatant (about 450 μL) was transferred into another tube after centrifugation at 16,000 rpm for 10 min and then evaporated to dryness at 45 °C, 15 kPa in a Thermo SPD1010-230 SpeedVac Concentrator (Thermo Fisher, San Jose, CA, USA). The residue was dissolved in 100 μL of initial mobile phase by vortexing for 5 min, and a further centrifugation at 17,000 rpm for 10 min was applied after the residue was re-dissolved. The supernatant was injected into the UHPLC-MS/MS system for analysis.

[2] = Stability test of analytes in rat plasma (QC samples); assay type: physicochemical; conditions: for 24 h Stability RE: autosampler at 4 °C for 24 h; for Short-Term Stability RE: room temperature for 4 h; for Freeze-Thaw Stability RE: three freeze-thaw cycles; for Long-Term Stability RE: −80 °C for a week
Description: Stability. To evaluate the stability of each component during analysis, QC samples at low, middle, and high concentrations (three samples for each concentration) were tested under different conditions, including placing QC samples in the autosampler at 4 °C for 24 h, at room temperature for 4 h, at −80 °C for a week, and three freeze-thaw cycles.

[3] = Pharmacokinetics in adjuvant-induced arthritis (AA) rats after oral administration of Zushima-Gancao extract (UHPLC-MS/MS of plasma); conditions: for change of Cmax in AA rats versus normal rats: p < 0.05
Description: as §1, §2, §3, §4, §5, §6, §7

[4] = AA rats versus normal rats, oral Zushima-Gancao extract
[5] = male, Sprague-Dawley, rat, plasma, po, 10 mL/kg
[6] = male, Sprague-Dawley, rat, in vivo, po, 10 mL/kg

Row | SMILES | AUC(0-inf) [1] | AUC(0-t) [1] | Cmax [1] | Tmax [1] | half-life [1] | 24 h Stability RE ([2]; high concentration) | Short-Term Stability RE ([2]; high concentration) | Freeze-Thaw Stability RE ([2]; high concentration) | Long-Term Stability RE ([2]; high concentration) | 24 h Stability RE ([2]; low concentration) | Short-Term Stability RE ([2]; low concentration) | Freeze-Thaw Stability RE ([2]; low concentration) | Long-Term Stability RE ([2]; low concentration) | 24 h Stability RE ([2]; middle concentration) | Short-Term Stability RE ([2]; middle concentration) | Freeze-Thaw Stability RE ([2]; middle concentration) | Long-Term Stability RE ([2]; middle concentration) | AUC(0-inf) [3, 5] | AUC(0-t) [3, 5] | Cmax [3, 5] | further results
1 | O=c1ccc2ccc(O)c(O)c2o1 [DPH, daphnetin] | 256 ± 54.8 ng·h/mL | 246 ± 53.9 ng·h/mL | 214 ± 32.5 ng/mL | 0.24 ± 0.11 h | 3.4 ± 0.96 h | −11.8% | −12.42% | −14.04% | −12.23% | −13.85% | −7.83% | −6.29% | −12.07% | −13.73% | −12.68% | −8.25% | −15% | 167 ± 49 ng·h/mL | 165 ± 49.4 ng·h/mL | 201 ± 108 ng/mL | decrease of AUC (0–∞) compared with the normal group [3, 4]: 34.56%; change of t1/2 in AA rats versus normal rats ([3]; AA versus normal rats): remarkable decrease; Tmax [3, 5]: 0.2 ± 0.07 h; half-life [3, 5]: 2.06 ± 0.26 h
2 | COc1cc2cc(Oc3ccc4ccc(=O)oc4c3)c(=O)oc2cc1O [DR, daphnoretin] | 163 ± 78.7 ng·h/mL | 131 ± 58.1 ng·h/mL | 14.4 ± 3.31 ng/mL | 0.39 ± 0.31 h | 14.5 ± 2.91 h | −6.11% | −5.38% | −9.71% | −13.85% | −11.79% | −13.63% | 0.05% | −12.79% | −11.33% | −13.99% | −14.22% | −14.41% | 154 ± 79.8 ng·h/mL | 86.2 ± 33.8 ng·h/mL | 7.06 ± 3.82 ng/mL | change of Cmax in AA rats versus normal rats ([3]; AA versus normal rats): decreased remarkably; Tmax [3, 5]: 0.42 ± 0.31 h; half-life [3, 5]: 28.3 ± 9.39 h
3 | CC1(C)[C@@H](O)CC[C@]2(C)[C@H]3C(=O)C=C4[C@@H]5C[C@@](C)(C(=O)O)CC[C@]5(C)CC[C@@]4(C)[C@]3(C)CC[C@@H]12 [GA, glycyrrhetinic acid] | 1960 ± 1260 ng·h/mL | 1940 ± 1240 ng·h/mL | 167 ± 93 ng/mL | 8.67 ± 1.63 h | 3.88 ± 1.29 h | 14.35% | 13.05% |  | 9.57% | 13.49% | 2.08% |  | 0.04% | 14.1% | −3.38% |  | 5.44% | 4330 ± 1860 ng·h/mL | 4260 ± 1860 ng·h/mL | 418 ± 296 ng/mL | increase of AUC (0–∞) in model rats compared to normal rats [3, 4]: 2.2 fold; increase of AUC(0–t) in model rats compared to normal rats [3, 4]: 2.2 fold; Tmax [3, 5]: 9.33 ± 2.07 h; half-life [3, 5]: 4.94 ± 2.43 h
4 | CC1(C)[C@@H](O[C@H]2O[C@H](C(=O)O)[C@@H](O)[C@H](O)[C@H]2O[C@@H]2O[C@H](C(=O)O)[C@@H](O)[C@H](O)[C@H]2O)CC[C@]2(C)[C@H]3C(=O)C=C4[C@@H]5C[C@@](C)(C(=O)O)CC[C@]5(C)CC[C@@]4(C)[C@]3(C)CC[C@@H]12 [GL, glycyrrhizin] | 267 ± 49.7 ng·h/mL | 248 ± 47.8 ng·h/mL | 29 ± 10.5 ng/mL | 0.58 ± 0.35 h | 8.72 ± 4.81 h | 13.22% | 13.85% | 14.36% | 9.2% | 11.79% | 10.26% | 10.89% | 11.48% | 11.8% | 10.68% | 14.3% | 9.96% | 187 ± 64.6 ng·h/mL | 184 ± 61.7 ng·h/mL | 24.9 ± 7.81 ng/mL | decrease of AUC (0–∞) compared with the normal group [3, 4]: 29.89%; change of Tmax in AA rats versus normal rats ([3]; AA versus normal rats): obvious increase; Tmax [3, 5]: 4.83 ± 2.64 h; half-life [3, 5]: 4.88 ± 3.04 h
5 | O=c1ccc2ccc(O)cc2o1 [HDC, 7-hydroxycoumarin] | 148 ± 24.9 ng·h/mL | 142 ± 24.4 ng·h/mL | 193 ± 29.3 ng/mL | 0.22 ± 0.08 h | 2.86 ± 1.94 h | 1.39% | 3.09% | 2.64% | −0.05% | −1.43% | −13.86% | −13.48% | −10.07% | −0.85% | −5.72% | −1.27% | −1.8% | 131 ± 29.1 ng·h/mL | 127 ± 26.8 ng·h/mL | 179 ± 98 ng/mL | Tmax [3, 5]: 0.22 ± 0.08 h; half-life [3, 5]: 2.52 ± 1.82 h
6 | O=C(/C=C/c1ccc(O)cc1)c1ccc(O)cc1O [ILG, isoliquiritigenin] | 12.4 ± 6.97 ng·h/mL | 8.89 ± 3.12 ng·h/mL | 2.77 ± 0.83 ng/mL | 0.14 ± 0.05 h | 1.08 ± 0.67 h | 10.13% | 12.09% | 7.59% | 13.23% | 8.75% | −3.23% | 2.53% | −11.29% | 10.08% | 11.76% | 12.3% | 12.68% | 8.48 ± 3.04 ng·h/mL | 8.25 ± 2.9 ng·h/mL | 1.92 ± 0.55 ng/mL | change of Tmax in AA rats versus normal rats ([3]; AA versus normal rats): obvious increase; Tmax [3, 5]: 3.7 ± 2.1 h; half-life [3, 5]: 1.39 ± 0.65 h
7 | O=C(/C=C/c1ccc(O[C@@H]2O[C@H](CO)[C@@H](O)[C@H](O)[C@H]2O)cc1)c1ccc(O)cc1O [ILQ, isoliquiritin] | 6.74 ± 0.6 ng·h/mL | 6.72 ± 0.6 ng·h/mL | 8.92 ± 1.68 ng/mL | 0.17 ± 0.09 h | 0.52 ± 0.2 h | 6.64% | 3.29% | 4.51% | 2.66% | 4.99% | 9.08% | −2.51% | 7.49% | 5.33% | 12.35% | −6.3% | 5.37% |  |  |  | decrease of AUC (0–∞) compared with the normal group [3, 4]: 39.02%; Tmax ([3]; AA rats, oral Zushima-Gancao extract 10 mL/kg single dose, plasma, n = 6, mean ± SD): 0.36 ± 0.13 h; change of Tmax in AA rats versus normal rats ([3]; AA versus normal rats): obvious increase; change of Cmax in AA rats versus normal rats ([3]; AA versus normal rats): decreased remarkably; AUC(0-inf) [3, 6]: 4.11 ± 1.12 ng·h/mL; AUC(0-t) [3, 6]: 4.04 ± 1.2 ng·h/mL; Cmax [3, 6]: 4.63 ± 3.64 ng/mL; half-life [3, 6]: 0.94 ± 0.83 h
